Assay results: patent US20220202739A1, “ENDOCANNABINOID MIMETIC AND ANTI-INFLAMMATORY COMPOUND CONTAINING COMPOSITIONS, METHODS OF PREPARATION AND USES THEREOF” (priority 2019, published 2022)

What was measured:
Format in all cases: cell-based
[1] = tested on: CNR1; experiment: Gene expression custom microarray, human skin fibroblasts (Example 1): CNR1
From the text: (§1) Cell cultures: A human skin fibroblast cell culture (or cultures) was obtained through the Coriell Cell Repository from the National Institute on Aging Cell Repository (Camden, N.J.), or Promocell GmbH (Heidelberg, Germany). The initial culture was selected from the following cell lines: AG13066, AG11557, AG11796 or GM03651E. The cell lines were derived from donors as follows:
(§2) Experimental phase: When the appropriate quantity of cells had been grown, they were detached as described above, but at the final step were seeded into each well of one or more 6 well dishes. Each well received 2 ml of the cell suspension so they were seeded equally. The dishes were returned to the incubator until 85-95% confluency was reached.
(§3) It is at this stage that all wells were rinsed in PBS after aspirating the growth media. The compound(s) to be tested were previously mixed into a suitable solvent (e.g., DMSO or ethanol) that can be diluted to the desired concentration of test compound (10 μl) in the culture wells without exceeding maximum solvent concentrations and adversely effecting cell viability, and mixed with basal media. NOTE: Standard maximum levels of solvent are 0.1% for DMSO and 0.5% for ETOH. The concentration of each test compound is found in Tables 1 & 2.
(§4) Every 2 wells on the 6 well plate served as a biological replicate for the purposes of RNA isolation and genetic expression evaluations making each 6 well dish an n=3 for the test compound(s) contained in the media. Negative control plates (no test compound(s) and only basal media) were also generated. The plates were returned to the incubator for 24 hrs.
(§5) At the end of the 24 hr time period, the plates were removed from the incubator, the test media aspirated, and the cells rinsed with PBS. RNA isolation is performed using the BioRad Aurum Total RNA Mini Kit (Hercules, Calif.) per manufacturer's protocol; which is described, in brief, below: • Add 350 μl of lysis buffer to each well. Pipet multiple times to ensure thorough lysis. Add lysed cells to the collection tube. • Add 350 μl of 70% ETOH to the collection tube and mix thoroughly. • Pipet the generated lysate onto the spin column placed in a new 2 ml tube. Centrifuge for 30 sec between 8,000 and 10,000 g. • Place the spin column containing the now bound RNA, in a new 2 ml tube. Add 700 μl of low stringency wash solution to the spin column. Centrifuge for 30 sec between 8,000 and 10,000 g. Discard the flow through and replace spin column. • Add 80 μl of DNase I dilution to the spin column and incubate at room temperature for 15 minutes. • Add 700 μl of high stringency wash solution to the column and centrifuge for 30 sec between 8,000 and 10,000 g. Discard flow through. • Add 700 μl of low stringency wash solution to the column and centrifuge for 60 sec between 8,000 and 10,000 g. Discard flow through. • Centrifuge for 2 minutes to remove residual wash solution. • Transfer spin column to new 1.5 ml collection tube and add 80 μl of elution solution to the column. Allow 1 minute for saturation of the membrane and then centrifuge for 2 minutes to complete the RNA elution. • Quantify the quantity of RNA and store at −20 C° until use (no more than 1 month)
(§6) The genes tested were: • Cannabinoid receptor 1 (CB1(CNR1)) • Cannabinoid receptor 2 (CB2 (CNR2)) • Fatty acid amide hydrolase (FAAH) • Monoacylglycerol lipase (MGLL, i.e., MAGL) • Peroxisome proliferator-activated receptor gamma (PPARG) • Nuclear factor kappa-light-chain-enhancer of activated B cells (NFκβ) • Interleukin 1 Alpha (IL1alpha) • Cyclooxygenase 1 (PTGS1, i.e., COX1) • Transient receptor potential cation channel subfamily A member 1 (TRPA1) • Transient receptor potential cation channel subfamily V member 1 (TRPV1) • Transient receptor potential cation channel subfamily M member 8 (TRPM8) • Hemoglobin Subunit Beta (HBB) REFERENCE GENE • Ribosomal Protein L13a (RPL13A) REFERENCE GENE […]

[2] = tested on: FAAH; experiment: Gene expression custom microarray, human skin fibroblasts (Example 1): FAAH
From the text: as §1, §2, §3, §4, §5, §6

[3] = tested on: MAGL; experiment: Gene expression custom microarray, human skin fibroblasts (Example 1): MAGL
From the text: as §1, §2, §3, §4, §5, §6

[4] = tested on: NFKB1; experiment: Gene expression custom microarray, human skin fibroblasts (Example 1): NFKB1; details: human skin fibroblasts, 10 uM, 24 hr
From the text: as §1, §2
as §3, with “ETOH.” for “ETOH. The concentration of each test compound is found in Tables 1 & 2.”
as §4, §5
The genes tested were: • Cannabinoid receptor 1 (CB1(CNR1)) • Cannabinoid receptor 2 (CB2 (CNR2)) • Fatty acid amide hydrolase (FAAH) • Monoacylglycerol lipase (MGLL, i.e., MAGL) • Peroxisome proliferator-activated receptor gamma (PPARG) • Nuclear factor kappa-light-chain-enhancer of activated B cells (NFκβ) • Interleukin 1 Alpha (IL1alpha) • Cyclooxygenase 1 (PTGS1, i.e., COX1) • Transient receptor potential cation channel subfamily A member 1 (TRPA1) • Transient receptor potential cation channel subfamily V member 1 (TRPV1) • Transient receptor potential cation channel subfamily M member 8 (TRPM8) • Hemoglobin Subunit Beta (HBB) REFERENCE GENE • Ribosomal Protein L13a (RPL13A) REFERENCE GENE

[5] = tested on: PTGS1; experiment: Gene expression custom microarray, human skin fibroblasts (Example 1): PTGS1; details: human skin fibroblasts, 10 uM, 24 hr
From the text: as §1, §2, §3, §4, §5, §6

[6] = human skin fibroblasts, 10 uM, 24 hr

Row | SMILES | fold induction at 10 µM ([1]; Homo sapiens, Skin fibroblast, 24 h, read-out: CNR1↑ gene expression, fold increase or decrease vs untreated cells) | fold induction at 10 µM ([2]; Homo sapiens, Skin fibroblast, 24 h, read-out: FAAH↓ gene expression, fold increase or decrease vs untreated cells) | fold induction at 10 µM ([3]; Homo sapiens, Skin fibroblast, 24 h, read-out: MAGL↓ gene expression, fold increase or decrease vs untreated cells) | fold induction at 10 µM ([4]; Skin fibroblast, read-out: NFKB1↓ gene expression, fold increase or decrease vs untreated cells) | fold induction at 10 µM ([5]; Skin fibroblast, read-out: PTGS1↓ gene expression, fold increase or decrease vs untreated cells) | CNR1↑ gene expression, fold increase or decrease vs untreated cells [1, 6] [fold] | FAAH↓ gene expression, fold increase or decrease vs untreated cells [2, 6] [fold] | MAGL↓ gene expression, fold increase or decrease vs untreated cells [3, 6] [fold] | NFKB1↓ gene expression, fold increase or decrease vs untreated cells [4] [fold] | PTGS1↓ gene expression, fold increase or decrease vs untreated cells [5] [fold]
1 | C=C(C)[C@@H]1CCC(C)=C[C@H]1c1c(O)cc(CCCCC)cc1O [CBD, cannabidiol, reference compound] | 1.5 | 2.2 | 1.8 | 2.3 | 4.2 |  |  |  |  | 
2 | CCCCCCCCCCCCCCCC(=O)NCCO [N-palmitoylethanolamide] |  |  |  |  |  | 5.9 | −1.1 | 2.8 | 1.5 | 1.1
